Laboratory results from patent publication US10597388B2, “Pyridazinone herbicides” (FMC CORPORATION, priority 2014, dated 2020).

Experiments:
Assay in all cases: Test C greenhouse herbicide test, pre- and postemergence
Format in all cases: in vivo
[1] = system: crabgrass, large (large crabgrass, Digitaria sanguinalis)
Summary of the method: (§1)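 Each species was treated both before emergence, in a loam–sand soil mix, and after emergence, as 1- to 4-leaf seedlings in peat-based potting medium. Plants stayed in the greenhouse 13 to 15 d, then were scored from 0 (no effect) to 100 (complete control) relative to controls.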

[2] = system: waterhemp (common waterhemp, Amaranthus rudis)
Summary of the method: as §1

[3] = system: foxtail, giant (giant foxtail, Setaria faberii)
Summary of the method: as §1

[4] = system: velvetleaf (Abutilon theophrasti)
Summary of the method: as §1

corn (Zea mays) = system: corn (Zea mays)
Summary of the method: as §1

[5] = system: morningglory (Ipomoea coccinea)
Summary of the method: as §1

[6] = system: oilseed rape (Brassica napus)
Summary of the method: as §1

[7] = system: lambsquarters (Chenopodium album)
Summary of the method: as §1

soybean (Glycine max) = system: soybean (Glycine max)
Summary of the method: as §1

[8] = system: nutsedge, yellow (yellow nutsedge, Cyperus esculentus)
Summary of the method: as §1

[9] = system: galium (catchweed bedstraw, Galium aparine)
Summary of the method: as §1

[10] = system: barnyardgrass (Echinochloa crus-galli)
Summary of the method: as §1

[11] = system: ragweed (common ragweed, Ambrosia elatior)
Summary of the method: as §1

[12] = system: ryegrass, Italian (Italian ryegrass, Lolium multiflorum)
Summary of the method: as §1

[13] = system: blackgrass (Alopecurus myosuroides)
Summary of the method: as §1

[14] = Postemergence, 125 g ai/ha, scale 0 to 100, 0 is no effect, 100 is complete control
[15] = Postemergence, 250 g ai/ha, scale 0 to 100, 0 no effect, 100 complete control, 13 to 15 d
[16] = Preemergence, 31 g ai/ha, scale 0 to 100, 0 is no effect, 100 is complete control
[17] = Preemergence, 62 g ai/ha, scale 0 to 100, 0 is no effect, 100 is complete control
[18] = Preemergence, 125 g ai/ha, scale 0 to 100, 0 is no effect, 100 is complete control
[19] = Preemergence, 250 g ai/ha, scale 0 to 100, 0 no effect, 100 complete control
[20] = postemergence, 62 g ai/ha, scale 0 to 100, 0 no effect, 100 complete control
[21] = Postemergence, 31 g ai/ha, 0 to 100 scale (0 no effect, 100 complete control)

SMILES: Cc1sc2ccccc2c1-c1c(O)c(Cl)nn(C)c1=O [Compound 89]
- Plant response rating, Crabgrass, Large [1, 14]: 5
- Plant response rating, Crabgrass, Large [1, 15]: 10
- Plant response rating, Crabgrass, Large [1, 16]: 20
- Plant response rating, Crabgrass, Large [1, 17]: 0
- Plant response rating, Crabgrass, Large [1, 18]: 25
- Crabgrass, Large plant response rating [1, 19]: 75
- Crabgrass, Large plant response rating [1, 20]: 5
- Plant response rating, Waterhemp [2, 14]: 50
- Plant response rating, Waterhemp [2, 15]: 50
- Plant response rating, Waterhemp [2, 16]: 75
- Plant response rating, Waterhemp [2, 17]: 50
- Plant response rating, Waterhemp [2, 18]: 40
- Waterhemp plant response rating [2, 19]: 75
- Waterhemp plant response rating [2, 20]: 40
- Plant response rating, Foxtail, Giant [3, 14]: 20
- Plant response rating, Foxtail, Giant [3, 15]: 30
- Plant response rating, Foxtail, Giant [3, 16]: 10
- Plant response rating, Foxtail, Giant [3, 17]: 60
- Plant response rating, Foxtail, Giant [3, 18]: 65
- Foxtail, Giant plant response rating [3, 19]: 75
- Foxtail, Giant plant response rating [3, 20]: 10
- Plant response rating, Velvetleaf [4, 14]: 75
- Plant response rating, Velvetleaf [4, 15]: 80
- Plant response rating, Velvetleaf [4, 16]: 70
- Plant response rating, Velvetleaf [4, 17]: 80
- Plant response rating, Velvetleaf [4, 18]: 90
- Velvetleaf plant response rating [4, 19]: 85
- Velvetleaf plant response rating [4, 20]: 75
- Corn plant response rating (corn (Zea mays); [21]): 5
- Plant response rating, Corn (corn (Zea mays); [14]): 10
- Plant response rating, Corn (corn (Zea mays); [15]): 5
- Plant response rating, Corn (corn (Zea mays); [16]): 0
- Plant response rating, Corn (corn (Zea mays); [17]): 0
- Plant response rating, Corn (corn (Zea mays); [18]): 0
- Corn plant response rating (corn (Zea mays); [19]): 0
- Corn plant response rating (corn (Zea mays); [20]): 5
- Plant response rating, Morningglory [5, 14]: 98
- Plant response rating, Morningglory [5, 15]: 98
- Plant response rating, Morningglory [5, 16]: 80
- Plant response rating, Morningglory [5, 17]: 85
- Plant response rating, Morningglory [5, 18]: 85
- Morningglory plant response rating [5, 19]: 90
- Morningglory plant response rating [5, 20]: 95
- Plant response rating, Oilseed Rape [6, 14]: 0
- Plant response rating, Oilseed Rape [6, 15]: 0
- Plant response rating, Oilseed Rape [6, 16]: 0
- Plant response rating, Oilseed Rape [6, 17]: 0
- Plant response rating, Oilseed Rape [6, 18]: 30
- Oilseed Rape plant response rating [6, 19]: 90
- Oilseed Rape plant response rating [6, 20]: 0
- Plant response rating, Lambsquarters [7, 14]: 100
- Plant response rating, Lambsquarters [7, 15]: 100
- Plant response rating, Lambsquarters [7, 16]: 40
- Plant response rating, Lambsquarters [7, 17]: 85
- Plant response rating, Lambsquarters [7, 18]: 98
- Lambsquarters plant response rating [7, 19]: 90
- Lambsquarters plant response rating [7, 20]: 90
- Plant response rating, Soybean (soybean (Glycine max); [14]): 0
- Plant response rating, Soybean (soybean (Glycine max); [15]): 0
- Plant response rating, Soybean (soybean (Glycine max); [16]): 0
- Plant response rating, Soybean (soybean (Glycine max); [17]): 0
- Plant response rating, Soybean (soybean (Glycine max); [18]): 0
- Soybean plant response rating (soybean (Glycine max); [19]): 5
- Soybean plant response rating (soybean (Glycine max); [20]): 0
- Plant response rating, Nutsedge, Yellow [8, 14]: 70
- Plant response rating, Nutsedge, Yellow [8, 15]: 75
- Plant response rating, Nutsedge, Yellow [8, 16]: 60
- Plant response rating, Nutsedge, Yellow [8, 17]: 75
- Plant response rating, Nutsedge, Yellow [8, 18]: 80
- Nutsedge, Yellow plant response rating [8, 19]: 90
- Nutsedge, Yellow plant response rating [8, 20]: 60
- Plant response rating, Galium [9, 14]: 95
- Plant response rating, Galium [9, 15]: 95
- Plant response rating, Galium [9, 16]: 95
- Plant response rating, Galium [9, 17]: 98
- Plant response rating, Galium [9, 18]: 98
- Galium plant response rating [9, 19]: 98
- Galium plant response rating [9, 20]: 95
- Barnyardgrass plant response rating [10, 21]: 5
- Plant response rating, Barnyardgrass [10, 14]: 20
- Plant response rating, Barnyardgrass [10, 15]: 40
- Plant response rating, Barnyardgrass [10, 16]: 5
- Plant response rating, Barnyardgrass [10, 17]: 15
- Plant response rating, Barnyardgrass [10, 18]: 25
- Barnyardgrass plant response rating [10, 19]: 65
- Barnyardgrass plant response rating [10, 20]: 15
- Plant response rating, Ragweed [11, 14]: 90
- Plant response rating, Ragweed [11, 15]: 98
- Plant response rating, Ragweed [11, 16]: 30
- Plant response rating, Ragweed [11, 17]: 80
- Plant response rating, Ragweed [11, 18]: 80
- Ragweed plant response rating [11, 19]: 90
- Ragweed plant response rating [11, 20]: 90
- Plant response rating, Ryegrass, Italian [12, 14]: 75
- Plant response rating, Ryegrass, Italian [12, 15]: 80
- Plant response rating, Ryegrass, Italian [12, 16]: 20
- Plant response rating, Ryegrass, Italian [12, 17]: 80
- Plant response rating, Ryegrass, Italian [12, 18]: 90
- Ryegrass, Italian plant response rating [12, 19]: 90
- Ryegrass, Italian plant response rating [12, 20]: 75
- Blackgrass plant response rating [13, 21]: 0
- Plant response rating, Blackgrass [13, 14]: 0
- Plant response rating, Blackgrass [13, 15]: 5
- Plant response rating, Blackgrass [13, 16]: 5
- Plant response rating, Blackgrass [13, 17]: 40
- Plant response rating, Blackgrass [13, 18]: 40
- Blackgrass plant response rating [13, 19]: 45
- Blackgrass plant response rating [13, 20]: 0

SMILES: COC(=O)Oc1cnn(C)c(=O)c1-c1c(C)sc2ccccc12 [Compound 97]
- Plant response rating, Crabgrass, Large [1, 14]: 10
- Plant response rating, Crabgrass, Large [1, 15]: 25
- Plant response rating, Crabgrass, Large [1, 16]: 0
- Plant response rating, Crabgrass, Large [1, 17]: 0
- Plant response rating, Crabgrass, Large [1, 18]: 0
- Crabgrass, Large plant response rating [1, 19]: 60
- Crabgrass, Large plant response rating [1, 20]: 5
- Plant response rating, Waterhemp [2, 14]: 5
- Plant response rating, Waterhemp [2, 15]: 10
- Plant response rating, Waterhemp [2, 16]: 0
- Plant response rating, Waterhemp [2, 17]: 10
- Plant response rating, Waterhemp [2, 18]: 10
- Waterhemp plant response rating [2, 19]: 20
- Waterhemp plant response rating [2, 20]: 5
- Plant response rating, Foxtail, Giant [3, 14]: 5
- Plant response rating, Foxtail, Giant [3, 15]: 5
- Plant response rating, Foxtail, Giant [3, 16]: 0
- Plant response rating, Foxtail, Giant [3, 17]: 5
- Plant response rating, Foxtail, Giant [3, 18]: 5
- Foxtail, Giant plant response rating [3, 19]: 55
- Foxtail, Giant plant response rating [3, 20]: 5
- Plant response rating, Velvetleaf [4, 14]: 10
- Plant response rating, Velvetleaf [4, 15]: 30
- Plant response rating, Velvetleaf [4, 16]: 0
- Plant response rating, Velvetleaf [4, 17]: 0
- Plant response rating, Velvetleaf [4, 18]: 20
- Velvetleaf plant response rating [4, 19]: 30
- Velvetleaf plant response rating [4, 20]: 20
- Corn plant response rating (corn (Zea mays); [21]): 0
- Plant response rating, Corn (corn (Zea mays); [14]): 0
- Plant response rating, Corn (corn (Zea mays); [15]): 5
- Plant response rating, Corn (corn (Zea mays); [16]): 5
- Plant response rating, Corn (corn (Zea mays); [17]): 0
- Plant response rating, Corn (corn (Zea mays); [18]): 0
- Corn plant response rating (corn (Zea mays); [19]): 0
- Corn plant response rating (corn (Zea mays); [20]): 0
- Plant response rating, Morningglory [5, 14]: 30
- Plant response rating, Morningglory [5, 15]: 30
- Plant response rating, Morningglory [5, 16]: 25
- Plant response rating, Morningglory [5, 17]: 30
- Plant response rating, Morningglory [5, 18]: 20
- Morningglory plant response rating [5, 19]: 30
- Morningglory plant response rating [5, 20]: 40
- Plant response rating, Oilseed Rape [6, 14]: 0
- Plant response rating, Oilseed Rape [6, 15]: 35
- Plant response rating, Oilseed Rape [6, 16]: 0
- Plant response rating, Oilseed Rape [6, 17]: 0
- Plant response rating, Oilseed Rape [6, 18]: 0
- Oilseed Rape plant response rating [6, 19]: 0
- Oilseed Rape plant response rating [6, 20]: 0
- Plant response rating, Lambsquarters [7, 14]: 50
- Plant response rating, Lambsquarters [7, 15]: 60
- Plant response rating, Lambsquarters [7, 16]: 0
- Plant response rating, Lambsquarters [7, 17]: 0
- Plant response rating, Lambsquarters [7, 18]: 20
- Lambsquarters plant response rating [7, 19]: 25
- Lambsquarters plant response rating [7, 20]: 20
- Plant response rating, Soybean (soybean (Glycine max); [14]): 5
- Plant response rating, Soybean (soybean (Glycine max); [15]): 5
- Plant response rating, Soybean (soybean (Glycine max); [16]): 15
- Plant response rating, Soybean (soybean (Glycine max); [17]): 10
- Plant response rating, Soybean (soybean (Glycine max); [18]): 10
- Soybean plant response rating (soybean (Glycine max); [19]): 20
- Soybean plant response rating (soybean (Glycine max); [20]): 0
- Plant response rating, Nutsedge, Yellow [8, 14]: 0
- Plant response rating, Nutsedge, Yellow [8, 15]: 5
- Plant response rating, Nutsedge, Yellow [8, 16]: 0
- Plant response rating, Nutsedge, Yellow [8, 17]: 0
- Plant response rating, Nutsedge, Yellow [8, 18]: 0
- Nutsedge, Yellow plant response rating [8, 19]: 0
- Nutsedge, Yellow plant response rating [8, 20]: 0
- Plant response rating, Galium [9, 14]: 85
- Plant response rating, Galium [9, 15]: 90
- Plant response rating, Galium [9, 16]: 0
- Plant response rating, Galium [9, 17]: 0
- Plant response rating, Galium [9, 18]: 0
- Galium plant response rating [9, 19]: 90
- Galium plant response rating [9, 20]: 80
- Barnyardgrass plant response rating [10, 21]: 0
- Plant response rating, Barnyardgrass [10, 14]: 15
- Plant response rating, Barnyardgrass [10, 15]: 35
- Plant response rating, Barnyardgrass [10, 16]: 0
- Plant response rating, Barnyardgrass [10, 17]: 0
- Plant response rating, Barnyardgrass [10, 18]: 0
- Barnyardgrass plant response rating [10, 19]: 35
- Barnyardgrass plant response rating [10, 20]: 5
- Plant response rating, Ragweed [11, 14]: 25
- Plant response rating, Ragweed [11, 15]: 35
- Plant response rating, Ragweed [11, 16]: 0
- Plant response rating, Ragweed [11, 17]: 0
- Plant response rating, Ragweed [11, 18]: 0
- Ragweed plant response rating [11, 19]: 10
- Ragweed plant response rating [11, 20]: 10
- Plant response rating, Ryegrass, Italian [12, 14]: 50
- Plant response rating, Ryegrass, Italian [12, 15]: 55
- Plant response rating, Ryegrass, Italian [12, 16]: 5
- Plant response rating, Ryegrass, Italian [12, 17]: 5
- Plant response rating, Ryegrass, Italian [12, 18]: 30
- Ryegrass, Italian plant response rating [12, 19]: 30
- Ryegrass, Italian plant response rating [12, 20]: 30
- Blackgrass plant response rating [13, 21]: 0
- Plant response rating, Blackgrass [13, 14]: 0
- Plant response rating, Blackgrass [13, 15]: 0
- Plant response rating, Blackgrass [13, 16]: 0
- Plant response rating, Blackgrass [13, 17]: 0
- Plant response rating, Blackgrass [13, 18]: 0
- Blackgrass plant response rating [13, 19]: 5
- Blackgrass plant response rating [13, 20]: 0
